Assay results published in patent publication US12161723B2, “Water-based cannabinoid and opioid compositions” (DAY THREE LABS MAN[…]., priority 2014, dated 2024).

Columns and labels:
BSA [1] = molecular target: T1, BSA (Bos taurus, UniProt P02769); experiment: Cannabis smoke/vapor passed through BSA/water/ethanol solution, cannabinoid profile (Example 1d); format: binding, bovine; settings: 33% ethanol, 48 hours incubation, washed
Description: (§1) To show which cannabinoid compounds are solubilized in processes using BSA versus organic solvents, cannabis from two different batches was smoked and or vaporized. Vapor was formed using a “volcano” vaporizer at a temperature of 210° C. The smoke/vapor was passed through either a BSA/water/ethanol solution described in example 1b, comprising 33% by volume ethanol or through a pure ethanol (99% ethanol) solution. Solutions were stirred using a magnetic stirrer and were incubated for 48 hours, during which time, most of the ethanol evaporated. One of the batches of cannabis was high in THC, and the other batch of cannabis was high in both THC and CBD.
The BSA/water/ethanol solution was washed after smoke or vapor was combined with it, and the amount of cannabinoids present was analyzed. The results of the comparison of relative concentration of cannabinoids (relative to total cannabinoid content) as expressed in percent (weight/weight), for a strain of cannabis high in THC are shown in the table below.

BSA [2] = molecular target: T1, BSA; experiment: THC standard adsorption to BSA at varying ethanol content (Example 1c); format: binding, bovine; settings: 10 micrograms BSA, 30 micrograms THC, 1.5-15 microliters ethanol; FIG. 5
Description: 30 micrograms of THC standard was dissolved in various amounts of ethanol (absolute) in various amounts, between 1.5 microliters and 15 microliters. The THC solution was then combined with 0.5 ml of a 20 microgram/ml solution of BSA. […] The results can be seen in FIG. 5.

[3] = 3 g high THC strain; 200 ml ethanol concentrated to about 3 ml
ovalbumin (hen) = molecular target: T2, ovalbumin (hen) (Gallus gallus, UniProt P01012); experiment: Cannabis vapor streamed through protein solution, cannabinoids adsorbed (Example 1f); format: binding; settings: vapor of cannabis high in CBD; 1 mg/ml protein, ethanol:water 1:2, 30° C., 24 hours
T2 sequence (P01012 1-386): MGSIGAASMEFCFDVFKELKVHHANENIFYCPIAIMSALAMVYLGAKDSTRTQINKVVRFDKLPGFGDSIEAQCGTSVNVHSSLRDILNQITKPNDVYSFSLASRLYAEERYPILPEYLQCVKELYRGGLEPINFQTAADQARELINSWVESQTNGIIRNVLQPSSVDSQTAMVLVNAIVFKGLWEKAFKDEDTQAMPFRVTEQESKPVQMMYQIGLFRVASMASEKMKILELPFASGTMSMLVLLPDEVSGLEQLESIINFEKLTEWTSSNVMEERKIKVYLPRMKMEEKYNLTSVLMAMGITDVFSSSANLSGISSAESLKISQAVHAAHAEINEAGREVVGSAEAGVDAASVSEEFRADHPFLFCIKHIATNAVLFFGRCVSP
Description: (§2) The protein solutions were formed using ethanol and water in a 1:2 ratio. The solutions were incubated at 30° C. for 24 hours.

bovine γ-globulin = experiment: as above; format: binding; settings: vapor of cannabis high in CBD; 1 mg/ml protein, ethanol:water 1:2, 30° C., 24 hours
Description: as §2

[4] = molecular target: T3, rice recombinant human serum albumin (HSA) (Homo sapiens, UniProt P02768); experiment: as above; format: binding; settings: vapor of cannabis high in CBD; 1 mg/ml protein, ethanol:water 1:2, 30° C., 24 hours
T3 construct: host or cells: rice (recombinant expression host)
T3 sequence (P02768 25-609): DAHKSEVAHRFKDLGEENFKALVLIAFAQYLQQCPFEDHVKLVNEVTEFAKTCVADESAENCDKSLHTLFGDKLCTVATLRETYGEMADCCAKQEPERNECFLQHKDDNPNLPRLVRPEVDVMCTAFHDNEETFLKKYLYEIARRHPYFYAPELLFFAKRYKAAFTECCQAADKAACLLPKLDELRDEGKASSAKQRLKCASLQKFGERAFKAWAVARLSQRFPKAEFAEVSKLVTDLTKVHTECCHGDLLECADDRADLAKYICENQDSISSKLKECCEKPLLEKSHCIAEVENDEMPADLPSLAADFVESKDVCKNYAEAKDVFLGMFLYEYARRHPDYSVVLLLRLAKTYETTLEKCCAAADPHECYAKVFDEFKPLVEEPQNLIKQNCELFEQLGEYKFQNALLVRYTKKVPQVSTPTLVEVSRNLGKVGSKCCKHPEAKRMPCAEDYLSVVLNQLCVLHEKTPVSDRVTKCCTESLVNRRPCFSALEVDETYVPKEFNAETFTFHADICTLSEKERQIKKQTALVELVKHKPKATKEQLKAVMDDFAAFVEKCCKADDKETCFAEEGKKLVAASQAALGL
Description: as §2

BSA [5] = molecular target: T1, BSA; experiment: Cannabis extract combined with albumin solution, cannabinoids adsorbed to BSA (Example 2a); format: binding, bovine; settings: albumin solution 10 mg/ml (BSA) with 20% ethanol, 2 hours at room temperature
Description: (§3) Cannabis extract was prepared as follows: In short, cannabis plant matter is dried, ground and homogenized to form ground cannabis. The ground cannabis is extracted with methanol/chloroform (volume/volume ratio of 9:1). Sonication and filtration is then performed. Identity of cannabinoids is determined by HPLC by evaporation, dissolution in an appropriate solvent.
(§4) Drying of the cannabis plant matter occurs under high vacuum at about 37±2° C. for about 24 hours and then ground to form a fine powder. 200 mg of ground powder is combined with 10 ml of methanol/chloroform, and sonicated in an ice bath for 30 minutes at maximum power. The supernatant is then filtered through a 0.2 micron filter.
(§5) A sample of the cannabis extract was analyzed for content of cannabinoids. The cannabis extract was then combined with albumin solution having 20% ethanol at 10 mg/ml (BSA) and incubated for 2 hours at room temperature.

[6] = Cannabinoid content of cannabis extract (Example 2a); format: physicochemical; settings: methanol/chloroform 9:1 cannabis extract
Description: as §3, §4, §5

[7] = molecular target: T4, bovine serum albumin (BSA) (Bos taurus, UniProt P02769); experiment: Cannabis smoke bubbled through aqueous BSA solution, cannabinoids determined by HPLC (Example 1a); format: binding; settings: BSA in Hartmann's solution; FIG. 2A
T4 construct: purchased Millipore, USA
T4 sequence (P02769 25-607): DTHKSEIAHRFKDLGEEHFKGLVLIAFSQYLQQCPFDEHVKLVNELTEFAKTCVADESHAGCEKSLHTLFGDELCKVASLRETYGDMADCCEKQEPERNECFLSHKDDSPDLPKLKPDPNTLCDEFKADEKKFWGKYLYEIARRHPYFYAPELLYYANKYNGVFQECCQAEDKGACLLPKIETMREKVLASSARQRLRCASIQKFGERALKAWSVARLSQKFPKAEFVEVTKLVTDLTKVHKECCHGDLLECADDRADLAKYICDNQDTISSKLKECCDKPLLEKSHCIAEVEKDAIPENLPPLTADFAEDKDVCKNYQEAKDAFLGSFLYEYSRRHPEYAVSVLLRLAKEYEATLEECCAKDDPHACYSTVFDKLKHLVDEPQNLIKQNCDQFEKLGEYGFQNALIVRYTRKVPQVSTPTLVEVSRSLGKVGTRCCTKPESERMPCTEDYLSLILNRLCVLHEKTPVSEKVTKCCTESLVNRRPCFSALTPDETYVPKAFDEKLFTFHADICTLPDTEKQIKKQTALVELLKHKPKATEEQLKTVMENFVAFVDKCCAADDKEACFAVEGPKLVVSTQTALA
Description: Protein-bound cannabinoid was formed according to the following method. An aqueous albumin solution was prepared by adding 20 (mg)) of bovine serum albumin (BSA, from Millipore, USA) to 10 milliliters (ml) ml Hartmann's solution (B. Braun Melsungen AG, Germany). BSA was completely dissolved using a shaker (Heidolph POLYMAX 1040) at 50 revolutions per minute.
A cannabis-filled cigarette was formed using a cigarette paper containing 0.8 gr ground cannabis (provided by “Seach” Israel), from flowers and budding leaves. A Pasteur pipette was cut longitudinally at its wide end, and the cigarette was lodged in to the cut end. The narrow end of the pipette was attached to a syringe. The cigarette was lit in a fume hood, and cigarette smoke was collected in the syringe by pulling the syringe plunger. The smoke was then slowly released into the BSA solution by depressing the plunger. Approximately 350 ml of smoke-containing air was gently bubbled through the BSA solution.
As a control, a solution of 10 ml of Hartmann's solution was prepared without the addition of BSA and a similar procedure of cannabis smoke formation and bubbling was performed.
Samples having a volume of 3 ml of the BSA solution and the control solution were each inserted in to HPLC glass vials and the open vials were inserted into a vacuum oven for 24 hours at 37° Celsius.
The solid phase after the evaporation was crushed in to a fine powder using mortar and pestle. The powder was extracted using Methanol chloroform 9:1 extract solution, sonicated for 30 minutes, and was then filtered and added in to an HPLC testing tube.
HPLC was performed using an HP1050 AGILENT, DAD detector, XBridge C18 3.5 μm 4.6×150 mm column, and according to the following parameters: […]

[8] = Cannabis smoke/vapor passed through pure ethanol, cannabinoid profile (Example 1d); format: physicochemical; settings: for relative concentration of cannabinoids (relative to total cannabinoid content), Vapor passed through ethanol: vapor at 210° C.
Description: as §1

albumin (BSA) = albumin (BSA) (Bos taurus, UniProt P02769); experiment: Ethanolic cannabinoid solution mixed with aqueous albumin, protein-bound cannabinoid quantified (Example 2b); format: binding, bovine; parameters: protein-bound cannabinoid quantified, Vapor: unit not given beside the values; settings: 100 microliters ethanolic solution + 500 microliters 5 mg/ml BSA, 30° C., 12 hours, non-adsorbed cannabinoids separated
albumin (BSA), sequence (P02769 25-607): as above
Description: 100 microliters of ethanolic cannabinoid solution from cannabis vapor and cannabis smoke were each mixed with 500 microliters of aqueous albumin solution that had been prepared at a concentration of 5 mg albumin (BSA)/ml. The aqueous albumin solution combined with the ethanolic cannabinoid solution was incubated at 30° C. for 12 hours in open tubes. After 12 hours, the tubes were mixed and centrifuged, and non-adsorbed cannabinoids were separated from the solution. Concentrated protein-bound cannabinoid was dried and quantified as described below.

BSA [9] = molecular target: T1, BSA; experiment: Adsorption capacity of BSA using THC standard (Example 1e); format: binding, bovine; settings: albumin 20 μg/ml in water and ethanol; THC 20-60 μg/ml; incubation two hours or 12 hours; FIG. 4
Description: An albumin solution in water (20 μg/ml) and ethanol was prepared. THC standard was added at concentrations of between 20 μg/ml and 60 μg/ml. The amount of THC adsorbed to the BSA protein was determined for each concentration after incubation for either two hours or 12 hours while gently vortexing.

[10] = strain of cannabis high in CBD and THC

T1 sequence (P02769 25-607): as above

**Q.** For `CCCCCc1cc(O)c2c(c1)OC(C)(C)[C@@H]1CCC(C)=C[C@@H]21` [THC, tetrahydrocannabinol, reference compound], which “relative concentration of cannabinoids (relative to total cannabinoid content), Smoke passed through BSA/water/ethanol” value (BSA [1]; [10]) is on record?
**A.** The value was 32.8 percent (weight/weight).

**Q.** What about the “relative concentration of cannabinoids (relative to total cannabinoid content), Vapor passed through BSA/water/ethanol” value (BSA [1]; [10]) of the same molecule?
**A.** The value was 37.7 percent (weight/weight).

**Q.** What about the “relative concentration of cannabinoids (relative to total cannabinoid content), Smoke passed through BSA/water/ethanol” value (BSA [1]; strain of cannabis high in THC) of the same molecule?
**A.** Its value is 69.7 percent (weight/weight).

**Q.** What about the “adsorption of THC to protein as ethanol concentration increases” value (BSA [2]) of the same molecule?
**A.** Its value is “adsorption of THC to protein increases”.

**Q.** And the “amount of cannabinoids dissolved in ethanol, Smoke” value [3]?
**A.** Its value is 6195.223 micrograms/ml.

**Q.** What about the “amount of cannabinoids dissolved in ethanol, Vapor” value [3] of the same molecule?
**A.** The value was 3777.7796 micrograms/ml.

**Q.** And the “percentage of each cannabinoid relative to total cannabinoids adsorbed to protein, Ovalbumin” value (ovalbumin (hen))?
**A.** The value was 41.7 percentage.

**Q.** What about the “percentage of each cannabinoid relative to total cannabinoids adsorbed to protein, Bovine γ-globulin” value (bovine γ-globulin) of the same molecule?
**A.** The value was 0 percentage.

**Q.** And the “percentage of each cannabinoid relative to total cannabinoids adsorbed to protein, Rice recombinant HSA” value [4]?
**A.** The value was 21 percentage.

**Q.** What about the “percentage of each cannabinoid relative to total cannabinoids adsorbed to protein, Adsorbed to BSA after extract combined with BSA solution” value (BSA [5]) of the same molecule?
**A.** Its value is 63 percentage.

**Q.** What about the “percentage of each cannabinoid relative to total cannabinoids, Extract” value [6] of the same molecule?
**A.** The value was 68 percentage.

**Q.** What about the “active cannabinoids found by HPLC in BSA aqueous solution after cannabis smoke was introduced” value [7] of the same molecule?
**A.** Its value is “dissolved in the solution”.

**Q.** What about the “relative concentration of cannabinoids (relative to total cannabinoid content), Smoke passed through ethanol” value [8, 10] of the same molecule?
**A.** The value was 40.7 percent (weight/weight).

**Q.** What about the “relative concentration of cannabinoids (relative to total cannabinoid content), Vapor passed through ethanol” value [8, 10] of the same molecule?
**A.** Its value is 40.9 percent (weight/weight).

**Q.** And the “relative concentration of cannabinoids (relative to total cannabinoid content), Smoke passed through ethanol” value ([8]; strain of cannabis high in THC)?
**A.** The value was 86.7 percent (weight/weight).

**Q.** What about the “relative concentration of cannabinoids (relative to total cannabinoid content), Vapor passed through ethanol” value ([8]; strain of cannabis high in THC) of the same molecule?
**A.** Its value is 94.6 percent (weight/weight).

**Q.** What about the “protein-bound cannabinoid quantified, Smoke” value (albumin (BSA)) of the same molecule?
**A.** Its value is 121.38.

**Q.** And the “protein-bound cannabinoid quantified, Vapor” value (albumin (BSA))?
**A.** The value was 131.955.

**Q.** And the “adsorbed THC per mg of albumin” value (BSA [9])?
**A.** Its value is “above 50 μg adsorbed THC per mg of albumin”.
